{"source": "paper PMC11882969", "about": "(Nature Communications, 2025)", "key": {"[1]": {"assay": "Pharmacokinetics: plasma, brain, CSF"}, "mice": {"test_system": "mice", "assay": "Catalepsy test, vertical wire mesh", "assay_type": "in vivo, mouse", "method": "Thirty min after an i.p. injection of the compounds, mice were placed on a vertical wire mesh and the latency to move all four paws was recorded."}}, "note": "“And” between values parts separate entries of the source, which are not always exact repeats. Equal entries are not always repeated."}
{"smiles": "CCCCCCC(C)(C)c1ccc([C@@H]2C[C@H](O)CC[C@H]2CCCO)c(O)c1", "note": "[CP55940]", "values": [{"measurement": "Brain, Mean", "setting": "[1]; Time 1 min", "value": 0}, {"measurement": "CSF, Mean", "setting": "[1]; Time 1 min", "value": 0}, {"measurement": "Plasma, Mean", "setting": "[1]; Time 1 min", "value": 0}, {"measurement": "Brain, Mean", "setting": "[1]; Time 5 min", "value": 0}, {"measurement": "CSF, Mean", "setting": "[1]; Time 5 min", "value": 0}, {"measurement": "Plasma, Mean", "setting": "[1]; Time 5 min", "value": 21.5}, {"measurement": "Brain, Mean", "setting": "[1]; Time 15 min", "value": 11.5}, {"measurement": "CSF, Mean", "setting": "[1]; Time 15 min", "value": 0}, {"measurement": "Plasma, Mean", "setting": "[1]; Time 15 min", "value": 47.5}, {"measurement": "Brain, Mean", "setting": "[1]; Time 30 min", "value": 19.2}, {"measurement": "CSF, Mean", "setting": "[1]; Time 30 min", "value": 0}, {"measurement": "Plasma, Mean", "setting": "[1]; Time 30 min", "value": 48.4}, {"measurement": "Brain, Mean", "setting": "[1]; Time 60 min", "value": 17.1}, {"measurement": "CSF, Mean", "setting": "[1]; Time 60 min", "value": 0}, {"measurement": "Plasma, Mean", "setting": "[1]; Time 60 min", "value": 26.7}, {"measurement": "Brain, Mean", "setting": "[1]; Time 120 min", "value": 11.9}, {"measurement": "CSF, Mean", "setting": "[1]; Time 120 min", "value": 0}, {"measurement": "Plasma, Mean", "setting": "[1]; Time 120 min", "value": 10.6}, {"measurement": "Brain, Mean", "setting": "[1]; Time 240 min", "value": 3.09}, {"measurement": "CSF, Mean", "setting": "[1]; Time 240 min", "value": 0}, {"measurement": "Plasma, Mean", "setting": "[1]; Time 240 min", "value": 2.6}, {"measurement": "Brain, Mean", "setting": "[1]; Time 360 min", "value": 0}, {"measurement": "CSF, Mean", "setting": "[1]; Time 360 min", "value": 0}, {"measurement": "Plasma, Mean", "setting": "[1]; Time 360 min", "value": 0}, {"measurement": "Brain, Mean", "setting": "[1]; Time 480 min", "value": 0}, {"measurement": "CSF, Mean", "setting": "[1]; Time 480 min", "value": 0}, {"measurement": "Plasma, Mean", "setting": "[1]; Time 480 min", "value": 0}, {"measurement": "Brain, Mean", "setting": "[1]; Time […]", "value": 0}, {"measurement": "CSF, Mean", "setting": "[1]; Time […]", "value": 0}, {"measurement": "Plasma, Mean", "setting": "[1]; Time […]", "value": 0}]}
{"smiles": "O=C(CCCN1CCC(O)(c2ccc(Cl)cc2)CC1)c1ccc(F)cc1", "note": "[haloperidol, reference compound]", "values": [{"measurement": "catalepsy (Figure6c), individual animals", "setting": "mice; 1 mg/kg dose", "value": "21 and 17 and 11.5 and 18 and 14"}, {"measurement": "catalepsy, latency to move all four paws", "setting": "mice; i.p., ‘1350 at 0.2 or 0.5 mg/kg, haloperidol 1.0 mg/kg", "value": "induced catalepsy"}]}
